Experimental findings from US20210317092A1 (BAYER PHARMA AKTIENGESELLSCHAFT, priority 2016, published 2021) are described below.

Read-outs that look alike come from different tables or passages of the source.

The target of this experiment is T1, human Bradykinin B1 receptor (Homo sapiens, UniProt P46663).
T1 construct: host or cells: CHO-K1
T1 sequence (P46663 1-353): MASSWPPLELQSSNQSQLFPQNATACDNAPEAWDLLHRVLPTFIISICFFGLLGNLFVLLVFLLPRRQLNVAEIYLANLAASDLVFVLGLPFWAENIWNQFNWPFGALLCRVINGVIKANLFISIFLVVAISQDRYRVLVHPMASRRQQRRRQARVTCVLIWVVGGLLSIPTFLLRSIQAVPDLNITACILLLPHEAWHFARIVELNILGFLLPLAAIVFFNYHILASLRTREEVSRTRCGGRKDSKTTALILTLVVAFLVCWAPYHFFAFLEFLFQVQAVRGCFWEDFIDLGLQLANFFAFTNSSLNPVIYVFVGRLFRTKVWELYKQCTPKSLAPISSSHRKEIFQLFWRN
The experiment is described as follows: Calcium flux Assay (FLIPR) with recombinant CHO-K1 cells expressing human Bradykinin B1 receptor, in presence (hB1 IC50) or absence (hB1 free IC50) of 0.1% BSA. The format is cell-based.

The mark [1] stands for this setting: in absence of 0.1% BSA, read-out: hB1 free IC50.
The mark [2] stands for this setting: in presence of 0.1% BSA, read-out: hB1 IC50.

For orientation: IC50 means the concentration needed to halve the response being measured.

In the case of `CC(C)(C)c1cnn(-c2ccc(NC(=O)C3(c4ccc(C(F)(F)F)cc4F)CC3)cc2-c2nnn[nH]2)c1` [Example 410, 1-[2-fluoro-4-(trifluoromethyl)phenyl]-N-[4-(4-tert-butyl-1H-pyrazol-1-yl)-3-(1H-tetrazol-5-yl)phenyl]cyclopro-panecarboxa-mide], the IC50 under setting [1] turned out to be 6.05 nM.

For `O=C(Nc1ccc(-n2cc(Cl)cn2)c(-c2nnn[nH]2)c1)C1(c2ccc(C(F)(F)F)cc2F)CC1` [Example 394, N-[4-(4-chloro-1H-pyrazol-1-yl)-3-(1H-tetrazol-5-yl)phenyl]-1-[2-fluoro-4-(trifluoromethyl)phenyl]cyclopro-panecarboxamide], the IC50 under setting [1] is 68.1 nM.

As for `COc1ccc(-c2ccc(NC(=O)C3(c4ccc(Cl)nc4)CC3)cc2-c2nnn[nH]2)cc1OC` [Example 51, 1-(6-Chloropyridin-3-yl)-N-[3′,4′-dimethoxy-2-(1H-tetrazol-5-yl)biphenyl-4-yl]cyclopropane carboxamide], under setting [2], the IC50 is 342 nM.

In the case of `CS(=O)(=O)c1cncc(-c2ccc(NC(=O)C3(c4cccc(Cl)c4)CC3)cc2-c2nnn[nH]2)c1` [Example 319, 1-(3-Chlorophenyl)-N-{4-[5-(methylsulfonyl)pyridin-3-yl]-3-(1H-tetrazol-5-yl)phenyl}cyclopro-panecarboxa-mide], the IC50 reads like this: under setting [1], 436 nM; under setting [2], 521 nM.

`COc1ccc(-c2ccc(NC(=O)C3(c4cc(F)ccc4Cl)CC3)cc2-c2nnn[nH]2)cc1OC` [Example 30, 1-(2-chloro-5-fluorophenyl)-N-[3′,4′-dimethoxy-2-(1H-tetrazol-5-yl)biphenyl-4-yl]cyclopropane carboxamide]: the IC50 under setting [2] was 201 nM.

With `O=C(Nc1ccc(-c2cnc(C(F)(F)F)nc2)c(-c2nnn[nH]2)c1)C1(c2ccc(Cl)c(F)c2)CC1` [Example 251, 1-(4-chloro-3-fluorophenyl)-N-{3-(1H-tetrazol-5-yl)-4-[2-(trifluoromethyl)pyrimidin-5-yl]phenyl} cyclopropane-carboxamide], the IC50 under setting [1] stood at 227 nM.

Regarding `COc1ccc(C2(C(=O)Nc3ccc(-c4ccc(OC)c(OC)c4)c(-c4nnn[nH]4)c3)CC2)cc1F` [Example 24, N-[3′,4′-dimethoxy-2-(1H-tetrazol-5-yl)biphenyl-4-yl]-1-(3-fluoro-4-methoxyphenyl) cyclopropane-carboxamide], the IC50 under setting [2] is 232 nM.

Consider `COc1ccc(-c2ccc(NC(=O)C3(CC(C)C)CC3)cc2-c2nnn[nH]2)cc1OC` [Example 55, N-[3′,4′-dimethoxy-2-(1H-tetrazol-5-yl)biphenyl-4-yl]-1-isobutyl-cyclopropane-carboxamide], for which the 50% inhibitory concentration (IC50) under setting [2] came out at 2060 nM.

As to `COc1cncc(-c2ccc(NC(=O)C3(c4cccc(C(F)(F)F)c4)CC3)cc2-c2nnn[nH]2)c1` [Example 152, N-[4-(5-methoxypyridin-3-yl)-3-(1H-tetrazol-5-yl)phenyl]-1-[3-(trifluoromethyl)phenyl] cyclopropane-carboxamide], under setting [2], the IC50 came to 23.5 nM.

Regarding “1-(3- chlorophenyl)- N-[4′- (methoxymethyl)- 2-(1H- tetrazol-5- yl(biphenyl-4- yl]cyclopropane carboxamide [Example 123]”, under setting [2], the IC50 was determined as 645 nM.

As to `COc1ccc(-c2ccc(NC(=O)C3(c4ccc(C(F)(F)F)cc4F)CC3)cc2-c2nnn[nH]2)cc1C(F)(F)F` [Example 131, 1-[2-fluoro-4-(trifluoromethyl)phenyl]-N-[4′-methoxy-2-(1H-tetrazol-5-yl)-3′-(trifluoromethyl)biphenyl-4-yl]cyclopropane carboxamide], under setting [1], the IC50 stood at 53 nM.

With `CN1CCN(c2ccc(-c3ccc(NC(=O)C4(c5cccc(Cl)c5)CC4)cc3-c3nnn[nH]3)cc2)CC1` [Example 330, 1-(3-chlorophenyl)-N-[4′-(4-methylpiperazin-1-yl)-2-(1H-tetrazol-5-yl)biphenyl-4-yl]cyclopropane carboxamide], the IC50 reads like this: under setting [1], 141 nM; under setting [2], 158 nM.

For the compound `O=C(Nc1ccc(-n2ccc(C(F)(F)F)n2)c(-c2nnn[nH]2)c1)C1(c2ccc(C(F)(F)F)cc2F)CC1` [Example 348, 1-[2-Fluoro-4-(trifluoromethyl)phenyl]-N-{3-(1H-tetrazol-5-yl)-4-[3-(trifluoromethyl)-1H-pyrazol-1-yl]phenyl}cyclopro-panecarboxa-mide], the IC50 under setting [1] is 122 nM.

For the compound `O=C(Nc1cc(-c2nnn[nH]2)c(-c2ccc(C(F)(F)F)nc2)cc1O)C1(c2ccc(Cl)cc2)CC1` [Example 226, 1-(4-chlorophenyl)-N-{2-hydroxy-5-(1H-tetrazol-5-yl)-4-[6-(trifluoromethyl)pyridin-3-yl]phenyl} cyclopropane-carboxamide], under setting [2], the IC50 came out at 105 nM.

`COc1ccc(-c2ccc(NC(=O)C3(c4ccc(C(C)(C)C)cc4)CC3)cc2-c2nnn[nH]2)cc1OC` [Example 46, 1-(4-tert-butylphenyl)-N-[3′,4′-dimethoxy-2-(1H-tetrazol-5-yl)biphenyl-4-yl]cyclopropane carboxamide]: under setting [2], the IC50 was determined as 141 nM.

Turning to `COc1ccc(-c2ccc(NC(=O)C3(c4ccccc4F)CC3(C)C)cc2-c2nnn[nH]2)cc1OC` (stereo not shown) [Example 8, N-[3′,4′-dimethoxy-2-(1H-tetrazol-5-yl)biphenyl-4-yl]-1-(2-fluorophenyl)-2,2-dimethylcyclo-propane-carboxamide], the IC50 under setting [1] came to 337 nM and the IC50 under setting [2] is 347 nM.

`O=C(Nc1ccc(-c2ccc(N3CCOCC3)cc2)c(-c2nnn[nH]2)c1)C1(c2cccc(Cl)c2)CC1` [Example 322, 1-(3-chlorophenyl)-N-[4′-(morpholin-4-yl)-2-(1H-tetrazol-5-yl)biphenyl-4-yl]cyclopropane carboxamide]: under setting [2], the IC50 came out at 238 nM.

As to “1-[2-fluoro-4- (trifluoromethoxy)- phenyl]-N-{3- (1H-tetrazol-5- yl)-4-[3-(2,2,2- trifluoroethyl)- 1H-pyrazol-1- yl]phenyl}cyclopro- panecarboxa- mide [Example 390]”, the IC50 under setting [1] was 14 nM.

`COc1ccc(-c2ccc(NC(=O)C3(C(F)(F)F)CC3)cc2-c2nnn[nH]2)cc1OC` [Example 34, N-[3′,4′-dimethoxy-2-(1H-tetrazol-5-yl)biphenyl-4-yl]-1-(trifluoromethyl) cyclopropane-carboxamide]: the IC50 under setting [2] was found to be 603 nM.

In the case of `O=C(Nc1ccc(-n2cnc(C(F)(F)F)c2)c(-c2nnn[nH]2)c1)C1(c2ccc(F)c(F)c2)CC1` [Example 356, 1-(3,4-Difluorophenyl)-N-{3-(1H-tetrazol-5-yl)-4-[4-(trifluoromethyl)-1H-imidazol-1-yl]phenyl}cyclopro-panecarboxa-mide], the IC50 under setting [1] is 2350 nM.

On to `CC(C)(C)c1cn(-c2ccc(NC(=O)C3(c4cccc(Cl)c4)CC3)cc2-c2nnn[nH]2)cn1` [Example 400, N-[4-(4-tert-butyl-1H-imidazol-1-yl)-3-(1H-tetrazol-5-yl)phenyl]-1-(3-chlorophenyl)cy-clopropanecarbox-amide], for which, under setting [1], the IC50 was determined as 25.4 nM.

As to `CCOc1ccc(-c2ccc(NC(=O)C3(c4cccc(F)c4C)CC3)cc2-c2nnn[nH]2)cn1` [Example 256, N-[4-(6-ethoxypyridin-3-yl)-3-(1H-tetrazol-5-yl)phenyl]-1-(3-fluoro-2-methylphenyl)cy-clopropanecar-boxamide], the IC50 by setting is: under setting [1], 288 nM; under setting [2], 274 nM.

Take `CCOc1ncc(-c2ccc(NC(=O)C3(c4ccc(F)cc4F)CC3)cc2-c2nnn[nH]2)cc1F` [Example 165, 1-(2,4-difluorophenyl)-N-[4-(6-ethoxy-5-fluoropyridin-3-yl)-3-(1H-tetrazol-5-yl)phenyl] cyclopropane-carboxamide]: the IC50 under setting [2] was found to be 64.1 nM.

Take `O=C(Nc1ccc(-n2cc(C(F)(F)F)cn2)c(-c2nnn[nH]2)c1)C1(c2cccc(Cl)c2)CC1` [Example 349, 1-(3-Chlorophenyl)-N-{3-(1H-tetrazol-5-yl)-4-[4-(trifluoromethyl)-1H-pyrazol-1-yl]phenyl}cyclopro-panecarboxa-mide]: the IC50 under setting [1] stood at 590 nM.

For the compound `COc1ccc(-c2cc(F)c(NC(=O)C3(c4ccc(F)c(Cl)c4)CC3)cc2-c2nnn[nH]2)cc1C` [Example 230, 1-(3-Chloro-4-fluorophenyl)-N-[5-fluoro-4′-methoxy-3′-methyl-2-(1H-tetrazol-5-yl)biphenyl-4-yl]cyclopropane-carboxamide], the IC50 under setting [2] is 2100 nM.

With `Cn1ncc2cc(-c3ccc(NC(=O)C4(c5cccc(Cl)c5)CC4)cc3-c3nnn[nH]3)ccc21` [Example 339, 1-(3-chlorophenyl)-N-[4-(1-methyl-1H-indazol-5-yl)-3-(1H-tetrazol-5-yll)phenyl]cyclopro-panecarboxa-mide], the IC50 was found to be 23.7 nM under setting [1] and 46.7 nM under setting [2].

Regarding `CS(=O)(=O)c1ccc(-c2ccc(NC(=O)C3(c4cccc(Cl)c4)CC3)cc2-c2nnn[nH]2)cn1` [Example 200, 1-(3-chlorophenyl)-N-{4-[6-(methylsulfonyl)pyridin-3-yl]-3-(1H-tetrazol-5-yl)phenyl} cyclopropane-carboxamide], the IC50 under setting [1] was 1170 nM.

With `CCOc1ccc(-c2cc(C)c(NC(=O)C3(c4cccc(Cl)c4)CC3)cc2-c2nnn[nH]2)cc1OC` [Example 249, 1-(3-Chlorophenyl)-N-[4′-ethoxy-3′-methoxy-5-methyl-2-(1H-tetrazol-5-yl)biphenyl-4-yl]cyclopropane carboxamide], the IC50 under setting [2] turned out to be 1760 nM.

For the compound `O=C(Nc1cc(-c2nnn[nH]2)c(-c2ccc(C(F)(F)F)nc2)cc1O)C1(c2ccc(F)cc2F)CC1` [Example 228, 1-(2,4-Difluorophenyl)-N-{2-hydroxy-5-(1H-tetrazol-5-yl)-4-[6-(trifluoromethyl)pyridin-3-yl]phenyl} cyclopropane-carboxamide], the IC50 under setting [2] is 88.2 nM.
